How the values were obtained:
cortical serotonin level = test: Microdialysis: effect on the cortical serotonin level in vivo; settings: rats
Text: In order to determine the effect of the substances on the cortical serotonin level in rats in vivo, a microdialysis probe with a semipermeable membrane was implanted into the brain tissue and perfused with a solution matched to the composition of cerebrospinal fluid (see in this respect, for example, Di Chiara, Trends Pharmacol. Sci. 11, 117-121, 1990). The molecules of the extracellular space, such as, for example, also of the neurotransmitter serotonin, diffuse via this membrane into the interior of the probe in accordance with their concentration gradient. From there, they are transported with the perfusion stream to a collecting vessel. The serotonin concentration in the dialysate obtained in this way is subsequently determined by means of high-sensitivity analytical methods. The fractions obtained at regular intervals (of, for example, 15-20 minutes) thus reflect the concentration changes of the transmitter in question in the brain tissue over a period of several hours. The concentration of the serotonin in the dialysate is firstly measured without any influence. The substance to be tested is then applied, and the serotonin concentrations before and after administration of the substances are compared.

[1] = Absolute bioavailability from AUC after po and iv administration; type: in vivo; settings: rat; Wistar rats, male; iv 0.2 mg/kg, po 0.5 mg/kg; plasma by LC/MS/MS
Description: The bioavailability was determined by a standard method described in many textbooks of pharmacokinetics with the aid of the AUC (area under the concentration/time curves) measured after po and iv administration. For the determination of the absolute bioavailability, the plasma concentration curve of the said substances was determined after intravenous (iv) and oral (po) administration to Wistar rats (male; N=3 animals/administration). The following experiment design was selected: • Administration method: iv and po • Dose: iv−0.2 mg/kg; po−0.5 mg/kg • Time of blood sampling for the determination of the plasma concentrations: • iv: 0.1, 0.5, 1, 2, 4, 6 and 24 h • po: 0.25, 0.5, 1, 2, 4, 6 and 24 h
The plasma concentrations were determined with the aid of LC/MS/MS.
The plasma concentrations were used to calculate the AUC (area under the concentration/time curve) in accordance with the so-called trapezium formula.
The bioavailability is obtained from the AUC in accordance with the following formula: Bioavailability [%]=100×(AUC po)/AUC iv)[…]

N#Cc1ccc2[nH]cc(CCCCN3CCN(c4ccc5oc(C(N)=O)cc5c4)CC3)c2c1 [EMD 68843, 5-{4-[4-(5-cyano-3-inolyl)butyl]-1-piperanzinyl}benzofuran-2-carboxamide, reference compound]
serotonin level in the brain (5-HT concentration in the dialysate), FIG. 1 (cortical serotonin level; 1 mg/kg i.p.): comparable increase in the concentration of serotonin in the brain to EMD 135894

N#Cc1ccc2[nH]cc(CCCCN3CCN(c4ccc5oc(=O)ccc5c4)CC3)c2c1 [EMD 135894, 3-(4-(4-(2-oxo-2H-1-benzopyran-6-yl)-1-piperazinyl)butyl)indole-5-carbonitrile, reference compound]
bioavailability [1]: 10%

N#Cc1ccc2[nH]cc(CCCCN3CCN(c4ccc5oc(=O)c(N)cc5c4)CC3)c2c1 [EMD 480246, 3-{4-[4-(3-Amino-2-oxo-2H-chromen-6-yl)piperazin-1-yl]butyl}-1H-indole-5-carbonitrile]
serotonin level in the brain (5-HT concentration in the dialysate), FIG. 2 (cortical serotonin level; 0.3 mg/kg i.p.): even higher serotonin level than EMD 391987

CCOC(=O)Nc1cc2cc(N3CCN(CCCCc4c[nH]c5ccc(C#N)cc45)CC3)ccc2oc1=O [EMD 480247, Ethyl(6-{4-[4-(5-cyano-1H-indol-3-yl)butyl]piperazin-1-yl}-2-oxo-2H-chromen-3-yl)carbamate]
serotonin level in the brain (5-HT concentration in the dialysate), FIG. 3 (cortical serotonin level; 0.3 or 1.0 mg/kg i.p. compared with vilazodone 1 mg/kg): clearly superior action to vilazodone
bioavailability [1]: ~20%
